Key:
human Cav3.1 = human Cav3.1 (Homo sapiens (Human), UniProt O43497); experiment: T-type calcium channel inhibitory activity, whole-cell patch-clamp with HEK293 cell; type: cell-based; conditions: for IC50: dose-reactive test, read-out: Cav3.1 IC50 (parenthesized)
[1] = system: tacrine-induced Parkinson's disease tremor model; experiment: Anti-tremor effect in tacrine-induced Parkinson's disease tremor model; type: in vivo, rat; conditions: Example 1 10-100 mg/kg, Example 13 3-100 mg/kg oral; tacrine 2.5 mg/kg i.p.; counted 10 minutes
Source text: One of the causes of tremor in Parkinson's disease is thought to be a decrease of intracerebral dopamine content, said decrease can hyper-activate the cholinergic nervous system in a counteractive manner to cause the symptom. In the present model, an acetylcholinesterase inhibitor activates the cholinergic nervous system, which breaks down the balance between intracerebral dopamine and acetylcholine to initiate a tremor symptom. Thus, the model is well known as a drug-induced model suffering from tremor in Parkinson's disease. With the present model, the effect of the present compound for inhibiting the tremor in Parkinson's disease was evaluated.
In the present test, male Slc: SD rats (Japan SLC, Inc.) were used. The present compound (Example 1 (10 mg/kg, 30 mg/kg, or 100 mg/kg), Example 13 (3 mg/kg, 10 mg/kg, 30 mg/kg, or 100 mg/kg)) was orally administered to the rat. One hour later, tacrine (2.5 mg/kg) was intraperitoneally administered to the rat. Ten minutes after the administration of tacrine, the number of tremulous jaw movements was counted for 10 minutes.

Rat striatum MAOB = Rat striatum MAOB (Rattus norvegicus (Rat), UniProt P19643); experiment: Activity for inhibiting monoamine oxidase B (MAOB); type: biochemical; conditions: [14C] β-PEA substrate; read-out: Rat striatum MAOB IC50
Protocol: MAOB is an enzyme involved in oxidative de-amino acid reaction of an endogenous monoamine neurotransmitter such as dopamine. […] The effect of the present compounds for inhibiting MAOB in rat striatum and simian striatum was tested.
Mitochondria⋅synaptosome fraction containing MAOB was prepared according to the following procedure. To striata of male Slc: Wistar rat (Japan SLC, Inc.) or male cynomolgus monkey (HAMRI CO., LTD.) was added 0.32 mol/L aqueous sucrose by 10 mL per 1 gram as wet weight of the tissue, and the mixture was homogenized. The homogenate was centrifuged at 4° C. at 1,000 g for 10 minutes, and the obtained supernatant was centrifuged again at 4° C. at 17,200 g for 20 minutes. To the obtained precipitate was added a prepared buffer solution (10 mmol/L Tris-HCl buffer solution (pH 7.4), 0.25 mol/L aqueous sucrose, 0.5 mmol/L EDTA-2K) by 10 mL per 1 gram as wet weight of the original tissue, and the mixture was centrifuged again at 4° C. at 17,200 g for 20 minutes. To the obtained precipitate was added the prepared buffer solution by 40 mL per 1 gram as wet weight of the original tissue. The mixture was suspended to be used as an enzyme homogenate solution.
As a substance to be degraded by MAOB, ^14C-labeled β-phenylethylamine ([^14C] β-PEA) was used. [^14C] β-PEA and the present compound solution diluted to each concentration were incubated with the enzyme homogenate solution at 37° C. for a given period, and then the reaction was stopped by adding 3 mol/L cold HCl thereto. The reaction product was extracted with a mixture of water-saturated toluene and ethyl acetate (1:1). The supernatant organic layer was separated, a liquid scintillation cocktail (ACSII, GE Healthcare) was added to the separated organic layer, and the radioactivity was measured with a liquid scintillation counter (TRI-CARB 3100TR, Packard). The IC50 value of each compound was determined based on two parameter logistic model with the inhibitory data of each concentration, said data were obtained from plural trials.

human CA-II = human CA-II (Homo sapiens (Human), UniProt P00918); experiment: Activity for inhibiting carbonic anhydrase (CA); type: biochemical; conditions: 4-nitrophenyl acetate substrate
Protocol: CA is a zinc metalloenzyme family which catalyzes reversible hydration between carbon dioxide, and bicarbonate and proton.
As a substance for decomposition by CA-II, 4-nitrophenyl acetate was used herein. 4-Nitrophenyl acetate is […] with CA-II to produce 4-nitrophenol. […] To the diluted solution were added […] (final concentration: 5 mmol/L) and the present compound of each concentration, and the mixture was incubated at 37° C. under shading for 30 minutes. […] The IC50 of the compound was obtained through the two-parameter logistic model with the inhibitory rate data in each concentration which was obtained from plural trials.

Sequence of human Cav3.1 (O43497 whole entry): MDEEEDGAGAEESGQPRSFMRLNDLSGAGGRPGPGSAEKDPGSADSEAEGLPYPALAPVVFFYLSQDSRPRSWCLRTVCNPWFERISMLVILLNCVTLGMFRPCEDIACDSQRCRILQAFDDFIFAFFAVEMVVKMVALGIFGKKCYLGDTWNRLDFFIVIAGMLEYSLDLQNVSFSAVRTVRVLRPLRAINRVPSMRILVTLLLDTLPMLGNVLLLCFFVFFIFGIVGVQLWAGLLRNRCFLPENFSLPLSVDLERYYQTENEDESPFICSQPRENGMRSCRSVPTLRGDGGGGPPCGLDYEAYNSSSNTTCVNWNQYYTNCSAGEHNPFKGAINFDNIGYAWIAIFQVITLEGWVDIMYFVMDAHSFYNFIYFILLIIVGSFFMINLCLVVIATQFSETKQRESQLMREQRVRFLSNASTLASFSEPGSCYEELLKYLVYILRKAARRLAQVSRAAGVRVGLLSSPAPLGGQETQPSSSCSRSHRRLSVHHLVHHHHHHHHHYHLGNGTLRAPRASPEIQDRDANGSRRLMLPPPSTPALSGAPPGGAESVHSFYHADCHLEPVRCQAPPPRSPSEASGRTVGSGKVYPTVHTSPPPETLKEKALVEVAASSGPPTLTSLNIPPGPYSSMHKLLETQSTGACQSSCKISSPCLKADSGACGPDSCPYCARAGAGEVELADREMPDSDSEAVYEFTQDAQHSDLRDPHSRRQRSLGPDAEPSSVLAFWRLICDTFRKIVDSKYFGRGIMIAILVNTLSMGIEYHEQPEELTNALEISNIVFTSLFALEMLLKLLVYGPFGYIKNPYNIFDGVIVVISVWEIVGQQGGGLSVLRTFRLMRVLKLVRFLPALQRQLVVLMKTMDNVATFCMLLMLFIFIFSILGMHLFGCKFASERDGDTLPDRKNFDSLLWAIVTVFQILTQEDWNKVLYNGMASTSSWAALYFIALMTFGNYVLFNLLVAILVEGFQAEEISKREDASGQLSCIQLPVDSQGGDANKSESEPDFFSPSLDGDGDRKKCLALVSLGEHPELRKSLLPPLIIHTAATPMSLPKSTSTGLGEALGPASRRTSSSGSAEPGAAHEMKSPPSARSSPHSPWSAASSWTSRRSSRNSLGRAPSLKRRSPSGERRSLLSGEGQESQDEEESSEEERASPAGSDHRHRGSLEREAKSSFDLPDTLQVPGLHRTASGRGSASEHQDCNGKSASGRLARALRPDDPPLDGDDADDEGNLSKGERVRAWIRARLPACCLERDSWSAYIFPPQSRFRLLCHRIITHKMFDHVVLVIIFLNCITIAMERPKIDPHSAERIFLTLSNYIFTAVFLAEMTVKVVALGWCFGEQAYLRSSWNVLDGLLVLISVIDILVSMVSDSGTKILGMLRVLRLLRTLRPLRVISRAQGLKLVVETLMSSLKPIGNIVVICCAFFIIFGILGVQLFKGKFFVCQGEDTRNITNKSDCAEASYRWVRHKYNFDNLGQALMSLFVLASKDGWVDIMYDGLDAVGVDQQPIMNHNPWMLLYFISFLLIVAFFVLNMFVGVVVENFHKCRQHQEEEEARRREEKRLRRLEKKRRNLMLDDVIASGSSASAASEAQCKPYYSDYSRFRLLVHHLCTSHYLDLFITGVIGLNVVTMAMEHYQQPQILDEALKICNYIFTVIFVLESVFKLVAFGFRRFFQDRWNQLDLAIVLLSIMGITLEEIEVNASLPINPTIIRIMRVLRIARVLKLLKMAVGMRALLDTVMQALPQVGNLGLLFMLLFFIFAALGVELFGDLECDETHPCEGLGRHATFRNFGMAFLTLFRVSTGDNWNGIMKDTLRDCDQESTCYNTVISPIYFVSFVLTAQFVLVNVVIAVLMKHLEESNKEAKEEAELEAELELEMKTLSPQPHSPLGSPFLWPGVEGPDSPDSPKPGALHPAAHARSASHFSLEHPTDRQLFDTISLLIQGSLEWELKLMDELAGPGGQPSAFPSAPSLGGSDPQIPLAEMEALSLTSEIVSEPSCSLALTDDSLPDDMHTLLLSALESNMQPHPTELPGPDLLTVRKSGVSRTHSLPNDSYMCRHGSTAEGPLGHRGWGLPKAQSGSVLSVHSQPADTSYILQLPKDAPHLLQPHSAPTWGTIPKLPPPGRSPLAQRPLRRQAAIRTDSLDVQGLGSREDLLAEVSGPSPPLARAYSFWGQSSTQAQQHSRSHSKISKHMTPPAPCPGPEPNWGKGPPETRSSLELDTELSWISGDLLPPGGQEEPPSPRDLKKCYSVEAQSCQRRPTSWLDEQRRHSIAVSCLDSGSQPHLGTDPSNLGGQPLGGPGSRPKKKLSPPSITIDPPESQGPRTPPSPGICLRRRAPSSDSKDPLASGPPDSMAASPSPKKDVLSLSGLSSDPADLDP
Sequence of Rat striatum MAOB (P19643 whole entry): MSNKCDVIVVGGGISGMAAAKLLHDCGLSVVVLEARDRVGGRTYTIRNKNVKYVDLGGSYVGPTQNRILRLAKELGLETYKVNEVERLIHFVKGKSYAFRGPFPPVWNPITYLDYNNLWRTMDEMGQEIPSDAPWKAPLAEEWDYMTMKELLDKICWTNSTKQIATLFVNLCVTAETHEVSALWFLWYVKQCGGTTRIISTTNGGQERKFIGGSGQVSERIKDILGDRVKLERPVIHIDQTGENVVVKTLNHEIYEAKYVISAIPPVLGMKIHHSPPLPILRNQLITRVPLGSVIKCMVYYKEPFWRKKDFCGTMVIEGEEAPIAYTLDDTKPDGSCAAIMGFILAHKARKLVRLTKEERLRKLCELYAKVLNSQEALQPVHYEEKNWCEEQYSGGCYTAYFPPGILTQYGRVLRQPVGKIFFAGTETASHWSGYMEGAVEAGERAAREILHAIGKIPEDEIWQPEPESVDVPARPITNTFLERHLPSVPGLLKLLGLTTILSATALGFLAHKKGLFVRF

| Structure (SMILES) | Cav3.1 % inhibitory rate (human Cav3.1; 600 μmol/L) [%] | IC50 (human Cav3.1) [µM] | number of tremulous jaw movements [1] | IC50 (Rat striatum MAOB) [µM] | IC50 (human CA-II) [µM] | inhibition at 600 µM (human Cav3.1; HEK293, 600 μmol/L, read-out: Cav3.1 % inhibitory rate) [%] |
| --- | --- | --- | --- | --- | --- | --- |
| CC(c1noc2ccccc12)S(N)(=O)=O (stereo not shown) [Example 1, 1-(Benzo[d]isoxazol-3-yl)ethane-1-sulfonamide] | 46.0 | 449 | significantly decreased the number of tremulous jaw movements per unit time | 349 | 26.5 | – |
| C[C@H](c1noc2ccccc12)S(N)(=O)=O [Example 13, (1R)-1-(1,2-benzoxazol-3-yl)ethane-1-sulfonamide] | – | 465 | significantly decreased the number of tremulous jaw movements per unit time | > 600 | 18.2 | 50.9 |

— patent US11535599B2, “Benzisoxazole derivative” (Sumitomo Pharma Co., Ltd., priority 2020, dated 2022)
